Measured values taken from the supplement of paper PMC10331698.
± gives the standard deviation of the averaged measurements.

What was measured:
Assay in all cases: level (log10 ratio to DMSO vehicle control); higher = higher biomarker level / cell amount than vehicle control
Perfluoro-1-iodohexane = compound: FC(F)(F)C(F)(F)C(F)(F)C(F)(F)C(F)(F)C(F)(F)I [Perfluoro-1-iodohexane]; details: in DMSO
Protocol: (§1)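 BioMAP Diversity Plus panel of 12 human primary cell co-culture systems (3C, 4H, LPS, SAg, BT, BF4T, BE3C, CASM3C, HDF3CGF, KF3CT, MyoF, Mphg). Compounds were added 1 h before stimulation and left for 24 h (MyoF 48 h; BT 72 h for soluble read-outs or 6 d for IgG). Biomarkers were read by ELISA, cytotoxicity by SRB, PBMC viability and proliferation by Alamar Blue. Each well value was divided by the mean of 8 DMSO control wells on the same plate and log10 transformed; duplicate blinded samples were tested at 4 concentrations.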

Perfluorobutanoic acid = compound: O=C(O)C(F)(F)C(F)(F)C(F)(F)F [Perfluorobutanoic acid]; details: in DMSO
Protocol: as §1

[1] = compound: FC(F)(F)C(F)(F)C(F)(F)C(F)(F)C(F)(F)C(F)(F)C(F)(F)C(F)(F)CCS [2-(Perfluorooctyl)ethanthiol]; details: in DMSO
Protocol: as §1

[2] = compound: FC(F)(F)C(F)(C(F)(F)F)C(F)(F)C(F)(F)CC1CO1 [3-(Perfluoro-3-methylbutyl)-1,2-propenoxide]; details: in DMSO
Protocol: as §1

Perfluoroheptanoic acid = compound: O=C(O)C(F)(F)C(F)(F)C(F)(F)C(F)(F)C(F)(F)C(F)(F)F [Perfluoroheptanoic acid]; details: in DMSO
Protocol: as §1

[3] = compound: O=C(O)C(F)(F)C(F)(F)C(F)F [4H-Perfluorobutanoic acid]; details: in DMSO
Protocol: as §1

[4] = compound: O=C(O)C(F)(F)C(F)(F)C(F)(F)C(F)(F)C(F)(F)C(F)(F)C(F)(F)C(F)F [9-H-Perfluorononanoic acid]; details: in DMSO
Protocol: as §1

[5] = compound: OCCCC(F)(F)C(F)(F)C(F)(F)C(F)(F)C(F)(F)C(F)(F)C(F)(F)F [7:3 Fluorotelomer alcohol]; details: 6700 nM; in DMSO
Protocol: as §1

Row | Test System | level (log10) (Perfluoro-1-iodohexane; 6700 nM) | level (log10) (Perfluoro-1-iodohexane; 20000 nM) | level (log10) (Perfluoro-1-iodohexane; 60000 nM) | level (log10) (Perfluorobutanoic acid; 6700 nM) | level (log10) (Perfluorobutanoic acid; 20000 nM) | level (log10) (Perfluorobutanoic acid; 60000 nM) | level (log10) ([1]; 6700 nM) | level (log10) ([1]; 20000 nM) | level (log10) ([2]; 6700 nM) | level (log10) ([2]; 20000 nM) | level (log10) (Perfluoroheptanoic acid; 6700 nM) | level (log10) (Perfluoroheptanoic acid; 20000 nM) | level (log10) (Perfluoroheptanoic acid; 60000 nM) | level (log10) ([3]; 6700 nM) | level (log10) ([3]; 20000 nM) | level (log10) ([3]; 60000 nM) | level (log10) ([4]; 6700 nM) | level (log10) ([4]; 20000 nM) | level (log10) ([4]; 60000 nM) | level (log10) [5]
1 | 4H:CD106/VCAM-1 | 0.013 ± 0.03 | 0.01 ± 0.034 | 0.014 ± 0.068 | -0.0165 ± 0.0092 | -0.021 ± 0.0042 | -0.001 ± 0.013 | -0.0055 ± 0.005 | -0.0025 ± 0.012 | 0.0245 ± 0.043 | 0.0215 ± 0.042 | 0.0215 ± 0.035 | 0.0045 ± 0.049 | 0.007 ± 0.017 | -0.003 ± 0.014 | -0.0165 ± 0.011 | 0.0065 ± 0.011 | 0.005 ± 0.054 | 0.0095 ± 0.016 | -0.001 ± 0.016 | 0.019 ± 0.013
2 | LPS:sTNF-alpha | 0.0005 ± 0.022 | -0.008 ± 0.016 | 0.0075 ± 0.029 | -0.0195 ± 0.012 | -0.0055 ± 0.0078 | -0.041 ± 0.034 | 0.052 ± 0.013 | 0.098 ± 0.0071 | 0.0005 ± 0.0078 | -0.0025 ± 0.005 | -0.0265 ± 0.054 | -0.049 ± 0.0071 | -0.0215 ± 0.046 | 0.0095 ± 0.043 | 0.0095 ± 0.023 | 0.004 ± 0.031 | -0.0145 ± 0.012 | -0.0055 ± 0.016 | -0.0115 ± 0.019 | -0.081 ± 0.05
3 | BT:sIL-17A | -0.004 ± 0.018 | -0.0905 ± 0.12 | -0.089 ± 0.2 | 0.0335 ± 0.018 | -0.0265 ± 0.025 | -0.019 ± 0.021 | -0.0475 ± 0.022 | -0.05 ± 0.042 | 0.135 ± 0.0092 | -0.0585 ± 0.032 | 0.047 ± 0.027 | 0.0865 ± 0.16 | -0.0095 ± 0.22 | 0.067 ± 0.13 | -0.085 ± 0.02 | -0.158 ± 0.033 | 0.0095 ± 0.087 | -0.02 ± 0.024 | -0.126 ± 0.0099 | -0.0585 ± 0.17
4 | 3C:SRB | -0.0035 ± 0.00071 | -0.0155 ± 0.00071 | -0.0155 ± 0.0021 | -0.021 ± 0.027 | -0.017 ± 0.013 | -0.0085 ± 0.0035 | 0.005 ± 0.0071 | -0.013 ± 0.016 | 0.0045 ± 0.0064 | -0.01 ± 0.0057 | -0.0065 ± 0.0078 | 0.005 ± 0.0085 | -0.0255 ± 0.0035 | 0.0015 ± 0.0064 | -0.007 ± 0.016 | -0.0075 ± 0.013 | -0.005 ± 0.028 | -0.0115 ± 0.016 | -0.052 ± 0.025 | -0.005 ± 0.0028
5 | BF4T:MMP-1 | 0.0045 ± 0.005 | 0.0035 ± 0.0035 | 0.009 ± 0.011 | 0.0045 ± 0.022 | -0.01 ± 0.017 | 0.0075 ± 0.015 | 0.003 ± 0.0085 | 0.01 ± 0.0099 | -0.0115 ± 0.047 | 0.02 ± 0.067 | -0.0005 ± 0.028 | 0.001 ± 0.03 | 0.039 ± 0.051 | -0.0075 ± 0.019 | 0 ± 0.034 | 0.006 ± 0.038 | 0.005 ± 0.021 | -0.0075 ± 0.039 | 0.0925 ± 0.00071 | 0.0005 ± 0.018
6 | BF4T:MMP-3 | 0.004 ± 0.0057 | 0.017 | 0.0635 ± 0.035 | 0.0005 ± 0.035 | 0.0045 ± 0.015 | 0.006 ± 0.033 | -0.0515 ± 0.0035 | -0.0285 ± 0.015 | 0.0005 ± 0.018 | -0.011 ± 0.0028 | -0.027 ± 0.023 | -0.011 | 0.046 ± 0.048 | -0.0025 ± 0.012 | -0.014 ± 0.02 | -0.007 ± 0.023 | -0.0115 ± 0.03 | -0.0025 ± 0.00071 | 0.075 ± 0.0071 | -0.013 ± 0.014
7 | 3C:CD87/uPAR | -0.0125 ± 0.032 | 0.004 ± 0.0071 | 0.0285 ± 0.0035 | 0.0005 ± 0.005 | 0.0105 ± 0.015 | -0.0065 ± 0.011 | -0.0175 ± 0.0021 | -0.0215 ± 0.0035 | -0.0085 ± 0.00071 | -0.003 ± 0.0028 | 0.0015 ± 0.0021 | -0.0115 ± 0.026 | 0.0045 ± 0.013 | -0.0265 ± 0.0092 | -0.0065 ± 0.0092 | 0.0095 ± 0.0064 | -0.013 ± 0.0042 | -0.0105 ± 0.023 | -0.029 ± 0.034 | -0.003 ± 0.031
8 | LPS:sPGE2 | 0.0235 ± 0.0092 | 0.0015 ± 0.00071 | -0.038 ± 0.018 | -0.0045 ± 0.012 | 0.0155 ± 0.025 | -0.0075 ± 0.0035 | -0.017 ± 0.025 | -0.022 ± 0.011 | -0.012 ± 0.023 | -0.0095 ± 0.054 | 0.0295 ± 0.005 | -0.0185 ± 0.022 | -0.0285 ± 0.059 | 0.0025 ± 0.054 | -0.111 ± 0.054 | -0.052 ± 0.013 | 0.005 ± 0.0057 | -0.0205 ± 0.0092 | -0.096 ± 0.0042 | 0.101 ± 0.03
9 | 3C:CXCL8/IL-8 | -0.014 ± 0.064 | -0.01 ± 0.065 | 0.0365 ± 0.079 | 0.001 ± 0.028 | -0.0035 ± 0.0064 | 0.0205 ± 0.03 | 0.002 ± 0.018 | 0.044 ± 0.028 | -0.0065 ± 0.018 | 0.008 ± 0.014 | 0.0285 ± 0.04 | 0.0305 ± 0.056 | 0.0955 ± 0.088 | -0.0015 ± 0.054 | 0.009 ± 0.0071 | 0.0395 ± 0.042 | -0.0115 ± 0.011 | 0.015 ± 0.0057 | 0.0765 ± 0.005 | 0.0075 ± 0.0035
10 | BF4T:Keratin 8/18 | -0.0075 ± 0.067 | -0.023 ± 0.016 | -0.015 ± 0.088 | -0.0015 ± 0.0092 | -0.011 ± 0.011 | 0.0075 ± 0.018 | -0.0415 ± 0.0064 | -0.0615 ± 0.03 | 0.01 ± 0.023 | -0.002 ± 0.035 | -0.0285 ± 0.0092 | -0.018 ± 0.0057 | 0.0045 ± 0.026 | -0.027 ± 0.027 | -0.0025 ± 0.013 | 0.0035 ± 0.021 | -0.007 ± 0.052 | 0.0065 ± 0.044 | 0.0005 ± 0.0035 | 0.0045 ± 0.0035
11 | BF4T:uPA | -0.0075 ± 0.013 | -0.016 ± 0.024 | -0.0165 ± 0.0035 | -0.005 ± 0.0071 | -0.011 ± 0.021 | -0.0025 ± 0.005 | -0.031 ± 0.011 | -0.0285 ± 0.039 | -0.0115 ± 0.0078 | -0.0325 ± 0.0078 | -0.017 ± 0.0057 | -0.0115 ± 0.012 | 0.009 ± 0.0085 | 0.002 ± 0.016 | 0.019 ± 0.0014 | 0.0105 ± 0.0021 | -0.0085 ± 0.016 | -0.0195 ± 0.012 | 0.001 ± 0.013 | -0.011 ± 0.0057
12 | SAg:Proliferation | -0.031 ± 0.044 | -0.055 ± 0.02 | -0.0395 ± 0.04 | -0.04 ± 0.0099 | 0.0325 ± 0.029 | -0.0065 ± 0.039 | 0.056 ± 0.016 | 0.0225 ± 0.03 | 0.028 ± 0.017 | 0.007 ± 0.12 | 0.0045 ± 0.032 | 0.0275 ± 0.035 | 0.028 ± 0.034 | -0.0545 ± 0.026 | -0.0325 ± 0.025 | -0.0145 ± 0.03 | 0.052 ± 0.065 | 0.0735 ± 0.037 | 0.048 ± 0.095 | -0.0205 ± 0.052
13 | LPS:CD141/Thrombomodulin | -0.0175 ± 0.0035 | -0.0095 ± 0.025 | -0.0105 ± 0.0092 | -0.0035 ± 0.046 | -0.0295 ± 0.05 | 0.008 ± 0.054 | 0.0055 ± 0.0064 | -0.0385 ± 0.028 | 0.0355 ± 0.0035 | 0.019 ± 0.034 | -0.0115 ± 0.03 | 0.002 ± 0.011 | -0.035 ± 0.0099 | -0.009 | -0.012 ± 0.016 | -0.008 ± 0.013 | 0.015 ± 0.017 | 0.018 ± 0.0057 | 0.027 ± 0.03 | -0.0025 ± 0.013
